Holding throughout (type): physicochemical
The nature of one data set: Solubility in water.
A short description of data set [1]: Microelectrophoresis: zeta-potential of coated organic microcrystals. As for the experimental part: The layer-by-layer assembly of polyelectrolytes onto FDA or PYR microcrystals was carried out as follows: 50 mg of finely milled core particles (FDA or PYR) were first thoroughly mixed with 12 mL of 0.2–0.4 wt % of the dispersing agent (ionic surfactant, lipid or charged polymer). Crystalline fluorescein diacetate or pyrene can be milled to fine particles using e.g. a mortar and pestle. However, also advanced ball milling procedures can be used.
The crystals were suspended by their immediate sonication for 5 min. The suspension was allowed to stand for 30 min, thus allowing the larger crystals to sediment, or gently centrifuged. The turbid white supernatant was then extracted, centrifuged and washed several times, and finally resuspended in water.
The resulting microcrystal particles were then layer-by-layer coated with PSS and PAH.^18 When positively charged surfactants or DPPC were used as the first layer, 1 mL of PSS solution (5 mg mL^−1, containing 0.5 M NaCl) was added first. PAH solution (1 mL of 5 mg mL^−1, containing 0.5 M NaCl) was added first when PSS or SDS were adsorbed onto the microcrystals. After an adsorption time of 15 min for PAH or PSS adsorption, the suspension was centrifuged at 3000 g for 5 min. The supernatant was then removed and three cycles of water washing and redispersing were applied to remove the excess unadsorbed polyelectrolyte in solution. Subsequent polyelectrolyte layers, bearing an opposite charge to that already adsorbed on the particle, were deposited in identical fashion to produce multilayer-coated microcrystals. In some cases, the fluorescently labeled polyelectrolyte, PAH-FITC, was applied (as a 2 mg mL^−1 solution containing 0.5 M NaCl) to form a fluorescent layer on the microcrystal surface.
The microelectrophoretic mobility of coated organic microcrystals was measured with a malvern Zetasizer 4 by taking the average of 5 measurements at the stationary level. The mobilities (μ) were converted to the electrophoretic potentials (ζ) using the Smoluchowski relation ζ=μη/ε, where η and ε are the viscosity and permittivity of the solution, respectively.^25 All measurements were performed on microcrystals re-dispersed in air-equilibrated pure water (pH ˜5.6).

Data set [2] can be described thus: Release experiments: removal of the microcrystal core by ethanol, fluorescence of supernatant. Particulars: control without polyelectrolyte multilayer. The protocol:
Direct proof that a polymer multilayer cage encapsulated the microcrystals was obtained by removing the templated core. The release behaviour of the pyrene and fluoresceine diacetate molecules, from dissolution of the core templates, through the polymer capsule wall can be investigated by using fluorescence spectroscopy. Following centrifugation of the coated microcrystal suspensions that were exposed to ethanol, the supernatant was assessed for either pyrene or fluoresceine at regular time intervals.
12 mL of solvent (ethanol or ethanol/water mixtures) were dispensed into 15 mL tubes. 0.1 mL of the coated microcrystal suspension of Example 3 was then quickly added to each tube and after defined times (2, 5, 10 min etc.) the suspension was centrifuged at 3000 g for 5 min. A portion of the supernatant was removed and tested for the presence of PYR of FDA by fluorescence. For PYR, the fluorescence emission intensity of the supernatant was measured directly by using an excitation wavelength (λex) of 350 nm and monitoring the emission (λem) at 373 nm. FDA was first hydrolyzed into fluorescein either by treatment with esterase or dilute base prior to fluorescence measurement (λex=492 nm, λem=513 nm). As control experiments, the release characteristics of uncoated particles was also studied as outlined above.

The mark [3] stands for this setting: SDS-dispersed crystals, layer No. 2, coating PAH.
[4] abbreviates: SDS-dispersed crystals, layer No. 3, coating PSS.
[5] abbreviates: SDS-dispersed crystals, layer No. 4, coating PAH.
The mark [6] stands for this setting: SDS-dispersed crystals, layer No. 5, coating PSS.
[7] abbreviates: SDS-dispersed crystals, layer No. 6, coating PAH-FTTC.
Setting [8] is: crystals, layer No. 1, coating SDS detergent, pure water pH ~5.6.

For `CC(=O)Oc1ccc2c(c1)Oc1cc(OC(C)=O)ccc1C21OC(=O)c2ccccc21` [Fluorescein diacetate, fluorescein diacetate], the solubility in water entry in the data set “Solubility in water” is reported as “very low solubility in water”. Moreover, the ζ-potential in data set [1] (SDS dispersed crystals (FIG. 2a)) is given as −50 mV; in data set [1] (microcrystals dispersed with DPPC (FIG. 2b)), “+20 mV”; in data set [1] (microcrystals exposed to PSS (FIG. 2b)) it was −40 mV. The Zeta-potential entry in data set [1] (setting [3]) was “+42.9 mV”; in data set [1] (setting [4]), −37.7 mV; in data set [1] (setting [5]), “+51.5 mV”; in data set [1] (setting [6]) it was −42.2 mV; in data set [1] (setting [7]), “+48.2 mV”; in data set [1] (setting [8]) it was -85 mV.
For the compound `c1cc2ccc3cccc4ccc(c1)c2c34` [Pyrene], the Zeta-potential result is given as “+59 mV” in data set [1] (setting [3]); −46.5 mV in data set [1] (setting [4]); “+54.3 mV” in data set [1] (setting [5]); −37.2 mV in data set [1] (setting [6]); “+47.3 mV” in data set [1] (setting [7]); −68.5 mV in data set [1] (setting [8]). Also, the ζ-potential result in data set [1] (crystals exposed to DDDAB (FIG. 2a)) was “+50 mV”. Besides, the “time for removal of core upon addition of ethanol” value in data set [2] (DDDAB-dispersed (surfactant-coated) microcrystals) and in data set [2] (PSS-dispersed (PSS-coated) microcrystals) was not above 30 min each time.

The values are drawn from patent US7045146B2, “Templating of solid particles by polymer multilayers” (Max-Planck-Gesellschaft zur Forderung der Wissenschaften …, priority 2000, dated 2006).
